In PubChem BioAssay AID1259407 (Chemical Carcinogenesis Research Information System (CCRIS), 2018):
Calls of active or inactive are those of the source. How the calls were made is not given here.

Test system: CCRIS mutagenicity, Ames/micronucleus/aberration tests
Assay: CCRIS mutagenicity studies
[1] = Test System: AMES SALMONELLA TYPHIMURIUM, Strain/Indicator: TA98, Metabolic Activation: RAT LIVER S-9, AROCLOR 1254, Method: STANDARD PLATE
[2] = Test System: AMES SALMONELLA TYPHIMURIUM, Strain/Indicator: TA100, Metabolic Activation: RAT LIVER S-9, AROCLOR 1254, Method: STANDARD PLATE
[3] = Test System: AMES SALMONELLA TYPHIMURIUM, Strain/Indicator: TA100, Metabolic Activation: NONE, Method: STANDARD PLATE
[4] = Test System: AMES SALMONELLA TYPHIMURIUM, Strain/Indicator: TA100, Metabolic Activation: RAT, LIVER, S-9, AROCLOR 1254, Method: STANDARD PLATE
[5] = Test System: AMES SALMONELLA TYPHIMURIUM, Strain/Indicator: TA1537, Metabolic Activation: RAT, LIVER, S-9, AROCLOR 1254, Method: STANDARD PLATE
[6] = Test System: AMES SALMONELLA TYPHIMURIUM, Strain/Indicator: TA1538, Metabolic Activation: RAT, LIVER, S-9, AROCLOR 1254, Method: STANDARD PLATE
[7] = Test System: AMES SALMONELLA TYPHIMURIUM, Strain/Indicator: TA98, Metabolic Activation: NONE, Method: STANDARD PLATE
[8] = Test System: AMES SALMONELLA TYPHIMURIUM, Strain/Indicator: TA98, Metabolic Activation: RAT, LIVER, S-9, AROCLOR 1254, Method: STANDARD PLATE
[9] = Test System: AMES SALMONELLA TYPHIMURIUM, Strain/Indicator: TA1535, Metabolic Activation: NONE, Method: STANDARD PLATE
[10] = Test System: AMES SALMONELLA TYPHIMURIUM, Strain/Indicator: TA1535, Metabolic Activation: RAT, LIVER, S-9, AROCLOR 1254, Method: STANDARD PLATE
[11] = Test System: AMES SALMONELLA TYPHIMURIUM, Strain/Indicator: TA1537, Metabolic Activation: NONE, Method: STANDARD PLATE

## CCN(CCC#N)c1cc(NC(C)=O)c(-n2nc3c(Br)cc(N)c(Cl)c3n2)cc1OC
[1]
  mutagenic call: active; positive
[2]
  mutagenic call: active; positive
Test System: AMES SALMONELLA TYPHIMURIUM, Strain/Indicator: TA104, Metabolic Activation: RAT LIVER S-9, AROCLOR 1254, Method: STANDARD PLATE
  mutagenic call: active; positive
Test System: AMES SALMONELLA TYPHIMURIUM, Strain/Indicator: YG1024, Metabolic Activation: RAT LIVER S-9, PHENOBARBITAL, 5,6-BENZOFLAVONE (10%), Method: PREINCUBATION
  mutagenic call: active; positive

## CCN(CC)CCCNc1ccc2nc(C)n3c4ccc(O)cc4c(=O)c1c23
Test System: CHINESE HAMSTER V-79, Strain/Indicator: V-79 (HGPRT)/6-THIOGUANINE, Metabolic Activation: NONE
  mutagenic call: active; positive

## c1ccc2c(c1)-c1ccc3ccc4cccc5cc-2c1c3c45
[3]
  mutagenic call: inactive; negative
Test System: AMES SALMONELLA TYPHIMURIUM, Strain/Indicator: TA100, Metabolic Activation: RAT, LIVER, S-9, AROCLOR 1254, Method: PREINCUBATION
  mutagenic call: active; positive
[4]
  mutagenic call: active; positive
[5]
  mutagenic call: active; positive
[6]
  mutagenic call: active; positive

## c1ccc2cc3cc4ccccc4cc3cc2c1
[7]
  mutagenic call: inactive; negative
Test System: AMES SALMONELLA TYPHIMURIUM, Strain/Indicator: TA98, Metabolic Activation: RAT, LIVER, S-9, 3-METHYLCHOLANTHRENE, Method: STANDARD PLATE
  mutagenic call: active; positive
[8]
  mutagenic call: active; positive
Test System: AMES SALMONELLA TYPHIMURIUM, Strain/Indicator: TA100, Metabolic Activation: MOUSE, LIVER, S-9, 2,3,7,8-TETRACHLORODIBENZO-P-DIOXIN, Method: STANDARD PLATE
  mutagenic call: active; positive
Test System: AMES SALMONELLA TYPHIMURIUM, Strain/Indicator: TA100, Metabolic Activation: MOUSE, LIVER, S-9, 3-METHYLCHOLANTHRENE, Method: STANDARD PLATE
  mutagenic call: active; positive
[3]
  mutagenic call: inactive; negative
Test System: AMES SALMONELLA TYPHIMURIUM, Strain/Indicator: TA100, Metabolic Activation: RAT, LIVER, S-9, 3-METHYLCHOLANTHRENE, Method: STANDARD PLATE
  mutagenic call: active; positive
[4]
  mutagenic call: active; positive
[9]
  mutagenic call: inactive; negative
Test System: AMES SALMONELLA TYPHIMURIUM, Strain/Indicator: TA1535, Metabolic Activation: RAT, LIVER, S-9, 3-METHYLCHOLANTHRENE, Method: STANDARD PLATE
  mutagenic call: inactive; negative
[10]
  mutagenic call: inactive; negative
[11]
  mutagenic call: inactive; negative
Test System: AMES SALMONELLA TYPHIMURIUM, Strain/Indicator: TA1537, Metabolic Activation: RAT, LIVER, S-9, 3-METHYLCHOLANTHRENE, Method: STANDARD PLATE
  mutagenic call: active; positive
[5]
  mutagenic call: active; positive
Test System: AMES SALMONELLA TYPHIMURIUM, Strain/Indicator: TA1538, Metabolic Activation: NONE, Method: STANDARD PLATE
  mutagenic call: inactive; negative
Test System: AMES SALMONELLA TYPHIMURIUM, Strain/Indicator: TA1538, Metabolic Activation: RAT, LIVER, S-9, 3-METHYLCHOLANTHRENE, Method: STANDARD PLATE
  mutagenic call: active; positive
[6]
  mutagenic call: active; positive

## NC(N)=NC(N)=NCCc1ccccc1
End Point: IN VITRO CHROMOSOMAL ABERRATIONS, Test System: CHO CELLS, Metabolic Activation: NONE
  mutagenic call: inactive; negative
End Point: IN VITRO CHROMOSOMAL ABERRATIONS, Test System: CHO CELLS, Metabolic Activation: RAT, LIVER, S-9, PHENOBARBITAL AND BETA-NAPHTHOFLAVONE
  mutagenic call: inactive; negative
Test System: AMES SALMONELLA TYPHIMURIUM, Strain/Indicator: TA98, Metabolic Activation: HAMSTER, LIVER, S-9, AROCLOR 1254 (10%), Method: PREINCUBATION
  mutagenic call: inactive; negative
Test System: AMES SALMONELLA TYPHIMURIUM, Strain/Indicator: TA98, Metabolic Activation: NONE, Method: PREINCUBATION
  mutagenic call: inactive; negative
Test System: AMES SALMONELLA TYPHIMURIUM, Strain/Indicator: TA98, Metabolic Activation: RAT, LIVER, S-9, AROCLOR 1254 (10%), Method: PREINCUBATION
  mutagenic call: inactive; negative
Test System: AMES SALMONELLA TYPHIMURIUM, Strain/Indicator: TA100, Metabolic Activation: HAMSTER, LIVER, S-9, AROCLOR 1254 (10%), Method: PREINCUBATION
  mutagenic call: inactive; negative
Test System: AMES SALMONELLA TYPHIMURIUM, Strain/Indicator: TA100, Metabolic Activation: NONE, Method: PREINCUBATION
  mutagenic call: inactive; negative
Test System: AMES SALMONELLA TYPHIMURIUM, Strain/Indicator: TA100, Metabolic Activation: RAT, LIVER, S-9, AROCLOR 1254 (10%), Method: PREINCUBATION
  mutagenic call: inactive; negative
Test System: AMES SALMONELLA TYPHIMURIUM, Strain/Indicator: TA1535, Metabolic Activation: HAMSTER, LIVER, S-9, AROCLOR 1254 (10%), Method: PREINCUBATION
  mutagenic call: inactive; negative
Test System: AMES SALMONELLA TYPHIMURIUM, Strain/Indicator: TA1535, Metabolic Activation: NONE, Method: PREINCUBATION
  mutagenic call: inactive; negative
Test System: AMES SALMONELLA TYPHIMURIUM, Strain/Indicator: TA1535, Metabolic Activation: RAT, LIVER, S-9, AROCLOR 1254 (10%), Method: PREINCUBATION
  mutagenic call: inactive; negative
Test System: AMES SALMONELLA TYPHIMURIUM, Strain/Indicator: TA1537, Metabolic Activation: HAMSTER, LIVER, S-9, AROCLOR 1254 (10%), Method: PREINCUBATION
  mutagenic call: inactive; negative
Test System: AMES SALMONELLA TYPHIMURIUM, Strain/Indicator: TA1537, Metabolic Activation: NONE, Method: PREINCUBATION
  mutagenic call: inactive; negative
Test System: AMES SALMONELLA TYPHIMURIUM, Strain/Indicator: TA1537, Metabolic Activation: RAT, LIVER, S-9, AROCLOR 1254 (10%), Method: PREINCUBATION
  mutagenic call: inactive; negative

## COc1nsc2c(N)cccc12
Test System: AMES SALMONELLA TYPHIMURIUM, Strain/Indicator: TA98, Metabolic Activation: S-9, Method: STANDARD PLATE
  mutagenic call: active; positive

## Cc1cccc(N=O)c1
Test System: AMES SALMONELLA TYPHIMURIUM, Strain/Indicator: TA98, Metabolic Activation: RAT, LIVER, S-9, AROCLOR 1254, Method: PREINCUBATION
  mutagenic call: inactive; negative

## O=C(O)c1cccc2cccnc12
[7]
  mutagenic call: inactive; negative
[8]
  mutagenic call: inactive; negative
[3]
  mutagenic call: inactive; negative
[4]
  mutagenic call: inactive; negative
[9]
  mutagenic call: inactive; negative
[10]
  mutagenic call: inactive; negative
[11]
  mutagenic call: inactive; negative
[5]
  mutagenic call: inactive; negative

## COc1ccc2[nH]c3c(C)cc(N)c(C)c3c2c1
[7]
  mutagenic call: inactive; negative
[1]
  mutagenic call: active; positive
[3]
  mutagenic call: inactive; negative
[2]
  mutagenic call: inactive; negative

## Cc1ccc2c(ccc3c4ccccc4ccc23)c1
Test System: AMES SALMONELLA TYPHIMURIUM, Strain/Indicator: TA98, Metabolic Activation: RAT, LIVER, CYTOSOL, AROCLOR 1254, Method: STANDARD PLATE
  mutagenic call: inactive; negative
Test System: AMES SALMONELLA TYPHIMURIUM, Strain/Indicator: TA98, Metabolic Activation: RAT, LIVER, MICROSOMES, AROCLOR 1254, Method: STANDARD PLATE
  mutagenic call: inactive; negative
Test System: AMES SALMONELLA TYPHIMURIUM, Strain/Indicator: TA100, Metabolic Activation: RAT, LIVER, MICROSOMES, 2-METHYLCHRYSENE, Method: STANDARD PLATE
  mutagenic call: inactive; negative
Test System: AMES SALMONELLA TYPHIMURIUM, Strain/Indicator: TA100, Metabolic Activation: RAT, LIVER, MICROSOMES, AROCLOR 1254, Method: STANDARD PLATE
  mutagenic call: active; positive
Test System: AMES SALMONELLA TYPHIMURIUM, Strain/Indicator: TA100, Metabolic Activation: RAT, LIVER, MICROSOMES, Method: STANDARD PLATE
  mutagenic call: inactive; negative
